# According to PMC4404319 (ACS Chemical Neuroscience, 2015):
# Entries after “also recorded” stand apart in the source; their conditions may differ.
# Experiments:
# Chemical stability = type: physicochemical; conditions: pH 1–13, 24 h, 37 °C
# Caco-2 / P-gp = test: Caco-2 two-way permeability / P-gp substrate; conditions: Caco-2, second of two values given 'respectively'
# [1] = system: Salmonella typhimurium TA98 and TA100; test: Ames bacterial reverse mutation assay; conditions: ± metabolic activation, up to 5 μg/plate
# 166 GPCRs = test: Functional GPCR agonist and antagonist screen, whole panel; type: cell-based; conditions: agonist 12 500 nM, antagonist 10 000 nM
# in vitro = conditions: rat, liver microsomes, pH 7.4
# BCRP = test: in vitro; conditions: dog
# in vivo = conditions: male, Sprague-Dawley, rat, 5 mg/kg
# P-gp = test: in vitro; conditions: human, Caco-2
# C57BL/6 mice = test: Modified SHIRPA adverse pharmacology screen; type: in vivo; conditions: 50 and 150 mg/kg, 24 h observation
# [2] = system: APP/PS1 transgenic (Tg) mouse; test: Behavior in APP/PS1 transgenic mice, preventative paradigm
# MDCK / BCRP = test: BCRP-MDCK two-way permeability / BCRP substrate
# MAO-B = target: T1, MAO-B (Homo sapiens, UniProt P27338); test: Monoamine oxidase inhibition; conditions: 0.01–25 μM
# T1 sequence (P27338 1-520): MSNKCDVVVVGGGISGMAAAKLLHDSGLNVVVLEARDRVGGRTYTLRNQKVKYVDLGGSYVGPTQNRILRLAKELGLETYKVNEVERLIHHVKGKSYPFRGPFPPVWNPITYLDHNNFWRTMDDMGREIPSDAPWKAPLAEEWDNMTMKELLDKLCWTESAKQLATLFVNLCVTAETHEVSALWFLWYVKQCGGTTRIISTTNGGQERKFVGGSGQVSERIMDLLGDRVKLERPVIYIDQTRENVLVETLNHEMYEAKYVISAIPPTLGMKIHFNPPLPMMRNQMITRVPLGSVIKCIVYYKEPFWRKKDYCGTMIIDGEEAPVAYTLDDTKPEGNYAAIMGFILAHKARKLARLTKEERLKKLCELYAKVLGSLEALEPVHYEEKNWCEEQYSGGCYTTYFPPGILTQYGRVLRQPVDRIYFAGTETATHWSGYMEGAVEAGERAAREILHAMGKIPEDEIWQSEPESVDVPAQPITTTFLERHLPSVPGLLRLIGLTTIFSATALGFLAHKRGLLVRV
# MAO-A = target: T2, MAO-A (Homo sapiens, UniProt P21397); test: Monoamine oxidase inhibition; conditions: 0.01–25 μM
# T2 sequence (P21397 1-527): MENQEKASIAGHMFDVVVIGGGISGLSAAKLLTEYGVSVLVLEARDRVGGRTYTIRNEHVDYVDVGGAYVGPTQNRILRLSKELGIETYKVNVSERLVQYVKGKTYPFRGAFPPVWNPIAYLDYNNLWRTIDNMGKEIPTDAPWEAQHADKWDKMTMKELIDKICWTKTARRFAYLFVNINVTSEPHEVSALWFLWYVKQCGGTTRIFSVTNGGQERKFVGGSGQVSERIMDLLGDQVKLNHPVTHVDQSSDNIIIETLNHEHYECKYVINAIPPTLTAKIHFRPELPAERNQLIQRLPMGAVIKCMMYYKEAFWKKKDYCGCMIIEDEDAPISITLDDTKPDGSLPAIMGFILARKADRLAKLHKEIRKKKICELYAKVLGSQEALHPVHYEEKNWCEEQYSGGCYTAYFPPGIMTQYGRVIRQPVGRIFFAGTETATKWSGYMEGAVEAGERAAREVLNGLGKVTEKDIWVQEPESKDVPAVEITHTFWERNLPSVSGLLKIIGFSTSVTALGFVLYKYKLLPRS
# [3] = 2.5 mg/kg, oral, daily, 8 weeks to 3–4 months of age
compound,measurement,setting,value
"CN1CCN(c2cc(-c3ccncc3)c(-c3ccc4ccccc4c3)nn2)CC1 [MW150, 6-(4-Methylpiperazin-1-yl)-3-(naphthalen-2-yl)-4-(pyridin-4-yl)pyridazine]",chemical stability,Chemical stability,"chemically stable; also recorded: stable at pH (1–13), 24 h, 37 °C"
same,"percent recovery, second value",Caco-2 / P-gp,61%
same,AMES test,[1],negative
same,functional GPCR off-target activity,166 GPCRs,no agonist or antagonist activity; also recorded: negative
same,half-life at 1 μM,in vitro,43 ± 4 min
same,microsomal CLint at 1 μM,in vitro,20 µL/min/mg
same,"Papp A→B at 2 h, 5 μM",BCRP,20.7 ×10⁻⁶ cm/s
same,"Papp B→A at 2 h, 5 μM",BCRP,25.1 ×10⁻⁶ cm/s
same,recovery,BCRP,66%
same,half-life,in vivo,> 180 min
same,"Papp A→B at 2 h, 5 μM",P-gp,33.5 ×10⁻⁶ cm/s
same,"Papp B→A at 2 h, 5 μM",P-gp,31.2 ×10⁻⁶ cm/s
same,recovery,P-gp,71%
same,"adverse pharmacology, clinical observation",C57BL/6 mice,no differences or adverse events were detected
same,RAWM (spatial memory),[2]; [3],improved; also recorded: suppression of the deficits
same,contextual fear memory (associative memory),[2]; [3],improved; also recorded: suppression of the deficits
same,dose dependence of behavior end points,[2]; Figure S2,dose dependent
same,performance of WT mice,"[2]; WT littermates, 2.5 mg/kg oral daily",did not affect
same,sensory threshold,[2]; control behavior,No difference
same,visible platform task,[2]; control behavior,did not influence; also recorded: No difference
same,cued fear memory,"[2]; control behavior, hippocampus-independent",no effect; also recorded: No difference
same,open field tests,"[2]; control behavior, locomotor activity and anxiety",did not influence; also recorded: No difference
same,MDCK permeability classification,MDCK / BCRP,high cell permeability; also recorded: highly permeable
same,"percent recovery, second value","MDCK / BCRP; MDCK, second of two values given 'respectively'",67%
same,BCRP substrate status,MDCK / BCRP; effect of 10 μM Ko143 on bidirectional flux,not a substrate; also recorded: not BCRP substrate
same,MAO-B inhibition,MAO-B,negative
same,MAO-A inhibition,MAO-A,negative
